≈ marks a conversion by molar mass, not a printed value. Like-named read-outs stand apart in the source and are kept apart here.
How the values were obtained:
S. epidermidis biofilm = test: HTS live biofilm assay (resazurin metabolic activity); type: cell-based; details: Staphylococcus epidermidis, dose-response
A. baumannii biofilm = test: HTS total biofilm formation assay (crystal violet staining); type: cell-based, Acinetobacter baumannii; details: for AC50: Acinetobacter baumannii, 10 point dose-response 0.1-50 μM
Description: (§1) Each HTS tier consisted of: (i) primary screening, (ii) confirmation screening and (iii) dose-response curve screening. Each tier of HTS included three distinct biological process assays. The first assay was an optical density measurement of bacteria growth in the presence of each compound reported as a total bacteria growth. In the second assay, resazurin solution was used as an indicator of metabolic activity to measure the live bacteria in the biofilms, reported as live biofilm. The final assay was crystal violet staining, which indicated the amount of biofilm formation and the effect of each compound on this process, reported as total biofilm formation.
(§2) Briefly, stationary phase bacteria grown in L-broth were diluted 1:200 into fresh L-broth and 50 μM of each test compound. After 20-24 hours, the optical density (OD560) of each suspension was measured using Zeiss Plate::Vision with a 560 BP filter (560 nm, 2.5% light intensity, 1 mm focus to bottom of plate, and exposure time of 100 ms). To measure bacterial viability in the biofilm, 50 μl of a 5 mg/ml resazurin solution in L-broth was added to each well after washing 3 times with 50 μl of PBS. The plates were then incubated at 37° C. for 30 or 180 min for A. baumannii and P. aeruginosa biofilms, respectively. Fluorescence was measured using Zeiss Plate::Vision at excitation and emission wavelengths of 535 and 580 nm, 100 ms exposure time, 2.5% intensity and a 2 mm focus to the bottom of the biofilms. To assess biofilm formation, plates were washed 3 times with PBS and then 50 μl of 0.01% of crystal violet was added to each well to assess bacterial biofilm formation as described in a similar borosilicate tube assay by O'Toole and Kolter. After incubation at room temperature for 30 min and removal of the crystal violet solution by washing with PBS, 95% ethanol was added to solubilize the crystal violet followed by incubation for 20 min at room temperature. Finally, the optical density of each plate was determined using measured by Zeiss Plate::Vision using the same settings used to measure total bacterial growth. These 3 steps were used in each of the three tiers for the HTS process: (i) single point primary screening at 10 μM, (ii) triplicate confirmation of hits from (i) at 10 μM and (iii) determination of AC50 values in 10 point dose-response at a concentration range of 0.1-50 μM) in hits from (ii). The AC50 represents the concentration of compound that inhibits 50% of bacterial growth, bacterial viability, or biofilm formation. Genedata Screener® Assay Analyzer Software (Ver. 9.0.0 Standard) was used to analyze data from all assay tiers. Compounds with an AC50 of less than 20 μM in one of the biological assays from the dose response screen were subject to additional investigation.

P. aeruginosa biofilm = test: as above; type: cell-based, Pseudomonas aeruginosa; details: for AC50: 10 point dose-response 0.1-50 μM
Description: as §1, §2

A. baumannii = test: HTS total bacterial growth assay (optical density OD560); type: cell-based, Acinetobacter baumannii; details: for AC50: Acinetobacter baumannii, 10 point dose-response 0.1-50 μM, NS* = no sigmoid curve observed, read-out: Total Bacteria Growth AC50
Description: as §1, §2

S. epidermidis = test: MIC determination (CLSI, Mueller Hinton broth), planktonic cultures; type: cell-based; details: Staphylococcus epidermidis
Protocol: A standard protocol for determining the MIC of a specific compound as outlined by the Clinical and Laboratory Standards Institute (CLSI) was used, based on growth of the selected bacteria in Mueller Hinton (MH) broth with subsequent 2-fold dilutions of compounds of interest. Following the CLSI protocols, the MIC of each broad spectrum “hit” compound was performed in all 3 bacterial species in both aerobic and anaerobic conditions. All bacteria were grown in MH broth for 18 hrs at 37° C. The cells were then diluted 100-fold into MH broth containing compounds at concentrations ranging from 0.40-50 μM in the presence of either KNO3 or glucose to allow bacterial growth under anaerobic condition. After 24 hrs of incubation, cell growth was measured at OD600 using a SpectraMax 190 Absorbance Microplate Reader.
The HTS and CLSM assays identified and confirmed compounds that can inhibit biofilms formation in aerobic growth conditions. However, P. aeruginosa and S. epidermidis are capable of growth under anaerobic as well as aerobic conditions. […] The Minimal Inhibitory Concentrations (MIC) of the four broad agent hit compounds under both aerobic and anaerobic conditions of planktonic P. aeruginosa and S. epidermidis cultures were determined to evaluate compound efficacy in different growth conditions. The MICs for A. baumannii were determined only in aerobic conditions. To examine growth in aerobic conditions, bacteria were grown in either Mueller Hinton (MH) media only, MH media in the presence of 1% KNO3, or MH in the presence of 1% glucose. For MIC determinations under anaerobic conditions, growth was examined in MH media with 1% KNO3 or with 1% glucose.

[1] = MH with 1% Glucose, Aerobic, read-out: Minimum Inhibition Concentration
[2] = MH with 1% Glucose, Anaerobic, read-out: Minimum Inhibition Concentration
[3] = MH with 1% KNO3, Aerobic, read-out: Minimum Inhibition Concentration
[4] = MH with 1% KNO3, Anaerobic, read-out: Minimum Inhibition Concentration
[5] = MH, Aerobic, read-out: Minimum Inhibition Concentration
[6] = across all media and conditions (aerobic and anaerobic), read-out: concentration required to inhibit planktonic S. epidermidis growth (MIC)

Row | MIC (S. epidermidis; [1]) [µM] | MIC (S. epidermidis; [2]) [µM] | MIC (S. epidermidis; [3]) [µM] | MIC (S. epidermidis; [4]) [µM] | MIC (S. epidermidis; [5]) [µM] | MIC (S. epidermidis; [6]) [µM] | Compound | AC50 (S. epidermidis biofilm) [µM] | AC50 (A. baumannii biofilm) [µM] | AC50 (P. aeruginosa biofilm; Pseudomonas aeruginosa) [µM] | AC50 (A. baumannii) [µM] | HTS assay results: Biofilm Formation (A. baumannii biofilm; Y / —) | AC50 (P. aeruginosa biofilm) [µM] | HTS assay results: Biofilm Formation (P. aeruginosa biofilm; Y / —) | HTS assay results: Total Bacteria growth (A. baumannii; Y / —)
1 | 7.81 ± 2.71 (≈ 2.67 µg/mL) | 7.29 ± 2.76 (≈ 2.5 µg/mL) | 7.81 ± 2.71 (≈ 2.67 µg/mL) | 4.17 ± 1.04 (≈ 1.43 µg/mL) | 5.73 ± 3.42 (≈ 1.96 µg/mL) | 4 to 10 (≈ 1.37 to 3.42 µg/mL) | O=C(O)c1cn(C2CC2)c2c(F)c(-c3ccncc3)c(F)cc2c1=O [Compound 11, 7-(4-pyridyl)-1-cyclopropyl-6,8-difluoro-4-oxoquinoline-3-carboxylic acid] | < 0.1 | 0.85 | 7.4 | 0.66 |  |  |  | 
2 | 10.4 ± 2.08 (≈ 1.82 µg/mL) | 16.7 ± 4.17 (≈ 2.91 µg/mL) | 25 (≈ 4.37 µg/mL) | 16.7 ± 4.17 (≈ 2.91 µg/mL) | 20.8 ± 4.17 (≈ 3.64 µg/mL) | 10 to 25 (≈ 1.75 to 4.37 µg/mL) | Cn1sc(Cl)c(C#N)c1=O [Compound 3, 5-chloro-2-methyl-3-oxo-1,2-thiazole-4-carbonitrile] | 8.61 | 4.45 | 3.07 | 2.93 |  |  |  | 
3 | 0.65 ± 0.13 (≈ 0.219 µg/mL) | 0.78 ± 0.39 (≈ 0.262 µg/mL) | 0.78 ± 0.39 (≈ 0.262 µg/mL) | 0.39 (≈ 0.131 µg/mL) | 0.65 ± 10.1 (≈ 0.219 µg/mL) | < 1 | O=C(O)c1cn(C2CC2)c2c(F)c(N3CC(O)C3)c(F)cc2c1=O [Compound 8, 1-cyclopropyl-6,8-difluoro-7-(3-hydroxyazetidin-1-yl)-4-oxoquinoline-3-carboxylic acid] | < 0.1 |  |  | 3.44 | —* (AC50 higher than 20 μM) | 10.3 | —* (AC50 higher than 20 μM) | —* (AC50 higher than 20 μM)
4 | 5.86 ± 2.42 (≈ 2.29 µg/mL) | 5.21 ± 1.04 (≈ 2.03 µg/mL) | 10.4 ± 2.08 (≈ 4.07 µg/mL) | 5.21 ± 1.04 (≈ 2.03 µg/mL) | 8.33 ± 2.08 (≈ 3.25 µg/mL) | 4 to 10 (≈ 1.56 to 3.9 µg/mL) | NC(=S)N1CCN(c2cc3c(cc2F)c(=O)c(C(=O)O)cn3C2CC2)CC1 [Compound 7, 7-(4-carbamothioylpiperazin-1-yl)-1-cyclopropyl-6-fluoro-4-oxoquinoline-3-carboxylic acid] | 0.85 | 17.7 | 7.81 | 12.1 |  |  |  | 
